Laboratory results as given in paper PMC4581192, “Fenarimol, a Pyrimidine-Type Fungicide, Inhibits Brassinosteroid Biosynthesis” (International Journal of Molecular Sciences, 2015).

Biological target: T1, CYP90D1 (Arabidopsis thaliana, UniProt Q94IA6)
T1 construct: DNA fragment encoding CYP90D1 mature protein; expressed from pCold-GST in E. coli, fusion protein cleaved with HRV3C protease
T1 sequence (Q94IA6 1-491): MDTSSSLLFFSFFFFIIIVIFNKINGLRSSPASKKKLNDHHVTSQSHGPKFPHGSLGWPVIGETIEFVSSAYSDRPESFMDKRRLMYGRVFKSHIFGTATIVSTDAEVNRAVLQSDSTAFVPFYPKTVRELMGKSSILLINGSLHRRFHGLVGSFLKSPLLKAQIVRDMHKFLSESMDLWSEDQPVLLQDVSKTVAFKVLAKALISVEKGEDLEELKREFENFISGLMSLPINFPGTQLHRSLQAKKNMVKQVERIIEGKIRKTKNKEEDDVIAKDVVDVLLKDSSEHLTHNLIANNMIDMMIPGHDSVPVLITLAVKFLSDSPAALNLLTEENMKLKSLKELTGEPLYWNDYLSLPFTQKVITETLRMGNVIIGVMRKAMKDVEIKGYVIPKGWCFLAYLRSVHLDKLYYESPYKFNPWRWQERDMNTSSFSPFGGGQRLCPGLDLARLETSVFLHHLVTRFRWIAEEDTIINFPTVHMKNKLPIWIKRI
Assay: optical difference spectroscopy (type II spectral titration) of purified recombinant CYP90D1
Assay type: binding

Structure (SMILES): OC(c1ccc(Cl)cc1)(c1cncnc1)c1ccccc1Cl (stereo not shown) [FM, fenarimol]
- Kd: 790 nM
